In PMC8775380, “A Complexed Crystal Structure of a Single-Stranded DNA-Binding Protein with Quercetin and the Structural Basis of Flavonol Inhibition Specificity” (International Journal of Molecular Sciences, 2022):

What was measured:
[1] = target: T1, Pseudomonas aeruginosa single-stranded DNA-binding protein (PaSSB) (Pseudomonas aeruginosa, UniProt P40947); experiment: EMSA, inhibition of PaSSB binding to biotin-labeled dT35 ssDNA; format: biochemical; design: gene ssb; purified recombinant PaSSB
T1 sequence (P40947 2-165): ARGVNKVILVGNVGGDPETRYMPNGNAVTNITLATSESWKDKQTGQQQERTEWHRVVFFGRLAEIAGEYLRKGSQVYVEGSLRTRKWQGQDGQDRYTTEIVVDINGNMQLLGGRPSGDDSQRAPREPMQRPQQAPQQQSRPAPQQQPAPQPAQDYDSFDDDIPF

[2] = target: T1, Pseudomonas aeruginosa single-stranded DNA-binding protein (PaSSB); experiment: X-ray crystal structure of the complex, […] Å; design: gene ssb; recombinant PaSSB; amino acids 114–165 not observed in the structure
[3] = target: PaSSB (single-stranded DNA-binding protein) (Pseudomonas aeruginosa, UniProt P40947 1-165); experiment: EMSA; no flavonol; protein concentration at 50% bound; EMSA: 40 mM Tris-HCl pH 7.5, 50 mM NaCl, 37 °C 60 min, DNA 30 fmol/uL, PaSSB 0-5 uM; 8% native PAGE in TBE; flavonols dissolved in 10% DMSO; settings: protein: recombinant; chain copies: 4; label: biotin (3' in Results, 5' in Methods); single strand

O=c1c(O)c(-c2cc(O)c(O)c(O)c2)oc2cc(O)cc(O)c12 [myricetin]
IC50 [1]: 2800 ± 400 nM

O=c1c(O)c(-c2ccc(O)c(O)c2)oc2cc(O)cc(O)c12 [quercetin]
X-ray crystal structure of the complex, 2.32 Å [2]: The electron density of quercetin was well-defined and indicated the presence of quercetin in the structure of PaSSB

TTTTTTTTTTTTTTTTTTTTTTTTTTTTTTTTTTT (ssDNA) [dT35]
apparent K (half saturation) [3]: 548 ± 36 nM
